Measured values taken from US20240269304A1, “BCL-XL INHIBITOR ANTIBODY-DRUG CONJUGATES AND METHODS OF USE THEREOF” (Novartis AG, priority 2020, published 2024).
Like-named read-outs stand apart in the source and are kept apart here.

Tests used:
Format in all cases: cell-based
DND-41 cells = test: CellTiterGlo (CTG) cell viability, 72 h, DND-41 (Example 8)
Outline: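 DND-41 cells in RPMI with 10% heat-inactivated FBS exposed to payloads or ADCs for 3 days at 37° C/5% CO2, in triplicate. Viability measured as cellular ATP by CellTiterGlo luminescence; IC50 from four-parameter fit.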

HPB-ALL (T-ALL) = test: CellTiter-Glo viability 72 h, single agent or 1/1 combination with vincristine, ABT-199 or Compound A2, HPB-ALL (Example 9); details: Homo sapiens, HPBALL, single agent or 1/1 combination as labelled
Experimental: (§1) Cell lines were cultured in the media described above at 37° C. in a humidified atmosphere containing 5% CO2. Cells were seeded in 96 well clear bottom plates (96 well clear-bottom, white, Corning reference 3903) and exposed to the payloads or ADCs at single agents or in 1/1 combinations with vincristine, ABT-199 or compound A2 for 72 h (serially diluted; 9 concentrations each, triplicates). Effects of payloads or ADCs on cell viability were assessed after 3 days of incubation at 37° C./5% CO2 by quantification of cellular ATP levels using CellTiter-Glo reagent (Promega Ref: G7571) at 75 μL reagent/well. All the conditions were tested in triplicates. Luminescence was quantified on a multipurpose plate reader. IC50s were calculated using standard four-parametric curve fitting. […] Each experiment was performed at least twice, with results being reproducible.

ALL-SILL (T-ALL) = test: CellTiter-Glo viability 72 h, single agent or 1/1 combination, ALL-SIL (Example 9); details: single agent or 1/1 combination as labelled
Outline: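 ALL-SIL cells were incubated with payloads or ADCs, alone or in 1/1 combination, for 3 days at 37° C/5% CO2. Viability was read as cellular ATP by CellTiter-Glo luminescence, in triplicate. IC50s came from four-parameter curve fitting.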

LOUCY (T-ALL) = test: CellTiter-Glo viability 72 h, single agent or 1/1 combination, LOUCY (Example 9); details: single agent or 1/1 combination as labelled
Experimental: as §1

MM1S (MM) = test: CellTiter-Glo viability 72 h, single agent or 1/1 combination, MM1S (Example 9); details: Homo sapiens, MM1.S, single agent or 1/1 combination as labelled
Experimental: as §1

ncih1436 = test: In vitro ADC activity with combination partners, CellTiter-Glo 5 days, ncih1436 (Example 13); details: single agent
Experimental: (§2) Antibody drug conjugates (ADCs) targeting IgG, B7H3, CD56, DLK1, DLL3, EpCAM, and SEZ6 were tested against cancer cell lines obtained from ATCC (American Type Culture Collection) or from other commercial cell line vendors (cor1279, ncih1436, ncih146, ncih211, ncih524). The cells were cultured in media that is optimal for their growth at 5% CO2, 37° C. in a tissue culture incubator. Prior to seeding for the proliferation assay, the cells were split at least 2 days before the assay to ensure optimal growth density. On the day of seeding, cells were lifted off tissue culture flasks using 0.25% trypsin. Cell viability and cell density were determined using a cell counter (Vi-Cell XR Cell Viability Analyzer, Beckman Coulter). Cells with higher than 85% viability were seeded in white clear bottom 384-well plates (Greiner cat #781098) at a density of 1000 cells per well in 50 μL of standard growth media. Plates were incubated at 37° C. overnight in a tissue culture incubator.
(§3) The ADCs were prepared in standard phosphate buffered solution to desired concentrations. A series of 10 dilutions were made for each ADC. The prepared drug treatments were then added to the cells resulting in final concentrations of 300 nM to 0.015 nM. Combination partners (Venetoclax and Topotecan) were added at fixed concentrations. Acoustic transfer devices (Echo525, Echo550, Beckman Coulter) were used to add the ADCs or combination partners to the cells. Each treatment was tested in triplicate assay plates. Plates were incubated at 37° C. overnight or for 5 days in a tissue culture incubator. The ability of the ADCs to inhibit cell proliferation and survival was assessed using the Promega CellTiter-Glo® proliferation assay. Plates were incubated at room temperature for 20 minutes to stabilize luminescent signals prior to reading using a multimode plate reader (Pherastar, BMG). Luminescent counts of untreated cells were taken the day after seeding (Day 0 readings), and after 5 days of treatment (Day 5 readings). The Day 5 readings of the untreated cells were compared to the Day 0 readings. Assays with at least one cell doubling during the incubation period were considered valid. To evaluate the effect of the drug treatments, luminescent counts from wells containing untreated cells (100% viability) were used to normalize treated samples. The concentrations of treatment required to inhibit 50% of cell growth or survival ([…]) were calculated using a four parameter logistic regression equation.

ncih146 = test: In vitro ADC activity with combination partners, CellTiter-Glo 5 days, ncih146 (Example 13); details: single agent
Experimental: as §2, §3

ncih524 = test: In vitro ADC activity with combination partners, CellTiter-Glo 5 days, ncih524 (Example 13); details: single agent
Experimental: as §2, §3

Q: What does the source list for Cc1c(Nc2nc3ccccc3s2)nnc2c1CCCN2c1ccc(-c2cnn(C[C@]34C[C@]5(C)C[C@](C)(C3)C[C@@](OCCN3CCCC3)(C5)C4)c2C)c(C(=O)O)n1 [P21, 6-[3-(1,3-benzothiazol-2-ylamino)-4-methyl-6,7-dihydro-5H-pyrido[2,3-c]pyridazin-8-yl]-3-[1-[[3,5-dimethyl-7-(2-pyrrolidin-1-ylethoxy)-1-adamantyl]methyl]-5-methyl-pyrazol-4-yl]pyridine-2-carboxylic acid]?
A: IC50 (DND-41 cells; DND41, experiment n1, read-out: DND41 CTG 72 h IC50 nM n1): 0.31 nM; IC50 (DND-41 cells; DND41, experiment n2, read-out: DND41 CTG 72 h IC50 nM n2): 0.2 nM; IC50 (DND-41 cells; DND41, mean of n1 and n2, read-out: DND41 CTG 72 h IC50 nM Mean of n1 and n2): 0.26 nM; IC50 (HPB-ALL (T-ALL); mean, read-out: HPB-ALL (T-ALL) IC50 mean): 1010 pM; IC50 (HPB-ALL (T-ALL); n1, read-out: HPB-ALL (T-ALL) IC50 n1): 1330 pM; IC50 (HPB-ALL (T-ALL); n2, read-out: HPB-ALL (T-ALL) IC50 n2): 690 pM; IC50 (ALL-SILL (T-ALL); mean, read-out: ALL-SILL (T-ALL) IC50 mean): 630 pM; IC50 (ALL-SILL (T-ALL); n1, read-out: ALL-SILL (T-ALL) IC50 n1): 400 pM; IC50 (ALL-SILL (T-ALL); n2, read-out: ALL-SILL (T-ALL) IC50 n2): 860 pM; IC50 (LOUCY (T-ALL); mean, read-out: LOUCY (T-ALL) IC50 mean): 730 pM; IC50 (LOUCY (T-ALL); n1, read-out: LOUCY (T-ALL) IC50 n1): 730 pM; IC50 (MM1S (MM); mean, read-out: MM1S (MM) IC50 mean): 17400 pM; IC50 (MM1S (MM); n1, read-out: MM1S (MM) IC50 n1): 10400 pM; IC50 (MM1S (MM); n2, read-out: MM1S (MM) IC50 n2): 24300 pM; GI50 (ncih1436; Homo sapiens, NCI-H1436, 120 h): 0.000508 µM; GI Amax ncih1436 (ncih1436): −94.5; GI50 (ncih146; Homo sapiens, NCI-H146, 120 h): 0.000508 µM; GI Amax ncih146 (ncih146): −98.38; GI50 (ncih524; Homo sapiens, NCI-H524, 120 h): 0.000508 µM; GI Amax ncih524 (ncih524): −97.52
